# Results reported in patent publication US20170215422A1, “NOVEL CYCLIC DEPSIPEPTIDE DERIVATIVES AND HARMFUL ORGANISM CONTROL AGENTS COMPRISING THE SAME” (priority 2012, published 2017).
# How the values were obtained:
# Format in all cases: in vivo
# [1] = test system: Musca domestica; assay: Control effect against Musca domestica adults (sucrose solution on swab); conditions: 50 ppm in 40% sucrose solution, 4 days
# Procedure: A chemical solution of the compound according to the present invention that had been adjusted with a 40% sucrose solution to a concentration of 50 ppm was adsorbed on a swab, and the swab was placed in a vial. Two adults of Musca domestica grown in a room were released, followed by standing in a room at a room temperature of 25° C. […] When two insects were in a dead or anguished state, the test compound was determined to be effective.
# [2] = test system: Haemaphysalis longicornis; assay: Tickicidal effect against Haemaphysalis longicornis (capsule on mouse); conditions: treatment of 9.5 μg on mouse body surface; nymphal ticks; 5 days
# Procedure: A capsule having a diameter of 2 cm and a height of 2 cm was bonded to a surface of a back surface of a mouse. A compound of the present invention (9.5 μg) was dissolved in ethanol, and the solution was dropped on the surface of the body of the […] within the capsule. After thorough drying, ten nymphal ticks of Haemaphysalis longicornis were released, and the upper portion of the capsule was lidded for hermetical closing. The mouse was grown in a cage at 25° C. for 12 hr under light phase conditions. Five days after the release, the capsule was removed, and survival or death of the nymphal ticks and the number of blood sucked individuals were measured, and the death/anguish rate was calculated by the following equation.
# Death/anguish rate (%)={number of dead/anguished insects/(number of survived ticks+number of dead/anguished insects)}×100
# [3] = test system: egg of drug-resistant Tetranychus uruticae; assay: Ovicidal effect against egg of drug-resistant Tetranychus uruticae; conditions: for insecticidal effect against a strain having a lowered susceptibility to acequinocyl: summary of test results in words
# Procedure: <Miticidal Effect Against Two-Spotted Spider Mite (Drug-Resistant Strain)>
# (§1) A leaf disk having a diameter of 2.0 cm was cut out from a kidney bean grown in a pot. The leaf disk was inoculated with seven female adult of drug-resistant Tetranychus uruticae, followed by laying in a thermostatic chamber (25° C.). After the elapse of 24 hr, female adults were removed from the leaf disk. The foliage was treated with a chemical solution adjusted to a 50% aqueous acetone solution (0.05% Tween 20 added) containing a compound of the present invention at a predetermined concentration. The foliage was then air-dried and was allowed to stand in a thermostatic chamber (light period 16 hr-dark period 8 hr) (25° C.). Seven days after the chemical solution treatment, the number of remaining eggs and the number of dead mites were counted, and the ovicidal/miticidal rate was calculated by the following equation.
# (§2) Ovicidal/miticidal rate (%)={(number of remaining eggs+number of dead mites)/(number of remaining eggs+number of dead mites+number of survived insects)}×100
# [4] = test system: larvae of Musca domestica; assay: Control effect against larvae of Musca domestica (treated feed); conditions: treatment of 12.5 ppm in feed; 5 days
# Procedure: A compound of the present invention was applied to a very small amount of DMSO, followed by dissolution in deionized water to prepare a chemical solution. The chemical solution (2 mil) adjusted to a concentration of 12.5 ppm was added to and well mixed with 2 g of a powder prepared by mixing wheat bran, MF feed (ORIENTAL YEAST Co., Ltd.), and dry yeast at a wheat bran:MF feed:dry yeast of 25:5:1 to prepare a feed for larvae of Musca domestica. The feed containing the compound was lightly packed in a 3-ml vial, and eight eggs were released. The mouth of the vial was closed with a meshed lid, and the vial was left to stand at 25° C. The number of larvae was counted five days after the chemical treatment, and the death rate was calculated by the following equation. The test was carried out by replicating each treatment twice.
# Death rate (%)={number of dead larvae/(number of survived larvae+number of dead larvae)}×100
# [5] = test system: egg of Tetranychus uruticae (susceptible strain); assay: Ovicidal effect against egg of Tetranychus uruticae (susceptible strain); conditions: foliage treatment of 10 ppm; control agent
# Procedure: <Miticidal Effect Against Two-Spotted Spider Mite (Susceptible Strain)>
# as §1, with “of” for “of drug-resistant”
# as §2
structure (smiles),measurement,setting,value
CCCCC[C@@H]1OC(=O)[C@H](C)N(C)C(=O)[C@@H](CCCCC)OC(=O)[C@H](C)N(C)C(=O)[C@@H](CCCCC)OC(=O)[C@H](CC(C)C)N(C)C(=O)[C@@H](CCCCC)OC(=O)[C@H](C)N(C)C1=O [Compound 27],insecticidal activity (two adults dead or anguished = effective),[1],two insects were brought to a dead or anguished state
same,death/anguish rate,[2],not less than 70%
CCCCCC1OC(=O)C(CCC)N(C)C(=O)C(CCCCC)OC(=O)C(CC(C)C)N(C)C(=O)C(CCCCC)OC(=O)C(CC(C)C)N(C)C(=O)C(CCCCC)OC(=O)C(CCC)N(C)C1=O (centres unmarked) [Compound 53],insecticidal effect against a strain having a lowered susceptibility to acequinocyl,[3],high insecticidal effect
CCCCCC1OC(=O)C(CCC)N(C)C(=O)C(CCCCC)OC(=O)C(CCC)N(C)C(=O)C(CCCCC)OC(=O)C(CC(C)C)N(C)C(=O)C(CCCCC)OC(=O)C(CCC)N(C)C1=O (centres unmarked) [Compound 55],insecticidal effect against a strain having a lowered susceptibility to acequinocyl,[3],high insecticidal effect
CCCCCC1OC(=O)C(CC(C)C)N(C)C(=O)C(CCCCC)OC(=O)C(CC(C)C)N(C)C(=O)C(CCCCC)OC(=O)C(CC(C)C)N(C)C(=O)C(CCCCC)OC(=O)C(CCC)N(C)C1=O (centres unmarked) [Compound 56],insecticidal effect against a strain having a lowered susceptibility to acequinocyl,[3],high insecticidal effect
CCCCCC1OC(=O)C(CC(C)C)N(C)C(=O)C(CCCCC)OC(=O)C(CC(C)C)N(C)C(=O)C(CCCCC)OC(=O)C(CCC)N(C)C(=O)C(CCCCC)OC(=O)CN(C)C1=O (centres unmarked) [Compound 57],death rate,[4],100%
"CCCCCCCCCCCCC1=C(OC(C)=O)C(=O)c2ccccc2C1=O [acequinocyl, reference compound]",ovicial/miticidal rate against egg of Tetranychus uruticae (susceptible strain),[5],71%
same,ovicidal/miticidal rate,"[3]; foliage treatment of 10 ppm, eggs, drug-resistant strain, 7 days",11%
